Test results from patent US10376481B2, “Compounds and methods for inhibiting NHE-mediated antiport in the treatment of disorders associated with fluid retention or salt overload and gastrointestinal tract disorders” (ARDELYX, INC, priority 2012, dated 2019).

Tests used:
human NHE3 [1] = molecular target: T1, human NHE3 (Homo sapiens, UniProt P48764); assay: Cell-based assay of NHE-3 activity (persistent inhibition), human; conditions: PS120 fibroblasts stably expressing human NHE3, 60 min incubation then washout; for IC50: read-out: pIC50 (human Persistence assay) (converted)
T1 sequence (P48764 26-834): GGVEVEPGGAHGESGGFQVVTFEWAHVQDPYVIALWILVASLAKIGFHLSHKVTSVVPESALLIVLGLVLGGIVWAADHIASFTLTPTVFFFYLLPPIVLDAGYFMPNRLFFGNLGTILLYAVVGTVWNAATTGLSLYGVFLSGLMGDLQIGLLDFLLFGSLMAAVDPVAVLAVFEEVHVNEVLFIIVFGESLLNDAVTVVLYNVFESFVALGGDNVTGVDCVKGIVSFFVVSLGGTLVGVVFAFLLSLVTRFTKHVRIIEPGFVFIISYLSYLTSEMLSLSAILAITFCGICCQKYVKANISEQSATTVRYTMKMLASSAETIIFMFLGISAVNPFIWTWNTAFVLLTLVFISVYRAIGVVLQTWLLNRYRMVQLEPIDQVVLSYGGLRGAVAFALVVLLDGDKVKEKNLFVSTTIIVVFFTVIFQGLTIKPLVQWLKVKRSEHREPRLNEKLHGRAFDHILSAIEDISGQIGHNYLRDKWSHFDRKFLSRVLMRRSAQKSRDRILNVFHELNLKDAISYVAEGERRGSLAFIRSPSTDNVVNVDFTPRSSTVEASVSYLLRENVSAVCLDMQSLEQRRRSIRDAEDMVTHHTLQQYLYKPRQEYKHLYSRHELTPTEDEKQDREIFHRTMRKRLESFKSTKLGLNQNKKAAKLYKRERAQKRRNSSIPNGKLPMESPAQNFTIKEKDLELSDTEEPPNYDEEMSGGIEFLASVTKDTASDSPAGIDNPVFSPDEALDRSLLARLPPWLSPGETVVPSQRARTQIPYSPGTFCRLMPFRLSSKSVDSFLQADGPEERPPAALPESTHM
Experimental: The ability of compounds to inhibit human and rat NHE-3-mediated Na^+-dependent H^+ antiport after application and washout was measured using a modification of the pH sensitive dye method described above. PS120 fibroblasts stably expressing human NHE3 were obtained from Mark Donowitz (Baltimore, Md.). Opossum kidney (OK) cells were obtained from the ATCC and propagated per their instructions. The rat NHE-3 gene was introduced into OK cells via electroporation, and cells were seeded into 96 well plates and grown overnight. Medium was aspirated from the wells, cells were washed once with NaCl-HEPES buffer (100 mM NaCl, 50 mM HEPES, 10 mM glucose, 5 mM KCl, 2 mM CaCl2, 1 mM MgCl2, pH 7.4), then overlayed with NaCl-HEPES buffer containing 0-30 μM test compound. After a 60 min incubation at room temperature, the test drug containing buffer was aspirated from the cells. Following aspiration, cells were washed once with NaCl-HEPES buffer without drug, then incubated for 30 min at 37° C. with NH4Cl-HEPES buffer (20 mM NH4Cl, 80 mM NaCl, 50 mM HEPES, 5 mM KCl, 2 mM CaCl2, 1 mM MgCl2, pH 7.4) containing 5 μM BCECF-AM. Cells were washed once with Ammonium free, Na^+-free HEPES (100 mM choline, 50 mM HEPES, 10 mM glucose, 5 mM KCl, 2 mM CaCl2, 1 mM MgCl2, pH 7.4) and incubated in the same buffer for 10 minutes at room temperature to lower intracellular pH. NHE-3-mediated recovery of neutral intracellular pH was initiated (10 min after compound washout) by addition of Na-HEPES buffer. […] Changes in intracellular pH were monitored using a FLIPR Tetra® (Molecular Devices, Sunnyvale, Calif.) by excitation at λex 439 to 505 nm, and measuring BCECF fluorescence at λem 538 nm. The initial rate of the fluorescence ratio change was used as a measure of NHE-mediated Na^+/H^+ activity, and reported as the change in fluorescence ratio per minute. Initial rates were plotted as the average 2 or more replicates, and pIC50 values were estimated using GraphPad Prism.

human NHE3 [2] = molecular target: T1, human NHE3; assay: Cell-based assay of NHE-3 activity (human NHE3 inhibition assay); set-up: expressed in transfected cells; host or cells: Opossum kidney (OK) cells (ATCC), electroporated; conditions: OK cells with human NHE-3 gene, BCECF pH recovery, 0-30 μM test compound; read-out: Human NHE3 pIC50 (converted)
Experimental: Rat or human NHE-3-mediated Na^+-dependent H^+ antiport was measured using a modification of the pH sensitive dye method originally reported by Paradiso (Proc. Natl. Acad. Sci. USA. (1984) 81(23): 7436-7440). Opossum kidney (OK) cells were obtained from the ATCC and propagated per their instructions. The rat NHE-3 gene (GenBank M85300) or the human NHE-3 gene (GenBank NM_004174.1) was introduced into OK cells via electroporation, and cells were seeded into 96 well plates and grown overnight. Medium was aspirated from the wells, cells were washed twice with NaCl-HEPES buffer (100 mM NaCl, 50 mM HEPES, 10 mM glucose, 5 mM KCl, 2 mM CaCl2, 1 mM MgCl2, pH 7.4), then incubated for 30 min at room temperature with NH4Cl-HEPES buffer (20 mM NH4Cl, 80 mM NaCl, 50 mM HEPES, 5 mM KCl, 2 mM CaCl2, 1 mM MgCl2, pH 7.4) containing 5 μM bis(acetoxymethyl) 3,3′-(3′,6′-bis(acetoxymethoxy)-5-((acetoxymethoxy)carbonyl)-3-oxo-3H-spiro[isobenzofuran-1,9′-xanthene]-2′,7′-diyl)dipropanoate (BCECF-AM). Cells were washed twice with Ammonium free, Na^+-free HEPES (100 mM choline, 50 mM HEPES, 10 mM glucose, 5 mM KCl, 2 mM CaCl2, 1 mM MgCl2, pH 7.4) and incubated in the same buffer for 10 minutes at room temperature to lower intracellular pH. […] Initial rates were plotted as the average 2 or more replicates, and pIC50 values were estimated using GraphPad Prism.

Row | % inhibition (human Persistence assay) (human NHE3 [1]) | IC50 (human NHE3 [1]) | IC50 (human NHE3 [2]) | SMILES
1 | C (>70%) | < 100 nM | < 100 nM | CN(C)[C@H]1Cc2c(F)cc(Cl)cc2[C@@H]1Oc1ccc(S(=O)(=O)NCCOCCOCCNC(=O)NCCCCNC(=O)NCCOCCOCCNS(=O)(=O)c2ccc(O[C@H]3c4cc(Cl)cc(F)c4C[C@@H]3N(C)C)cc2)cc1 [Example 25]
2 | C (>70%) | 100 to 1000 nM | < 100 nM | CN(C)[C@H]1Cc2c(Cl)cc(Cl)cc2[C@@H]1Oc1ccc(S(=O)(=O)NCCOCCOCCNC(=O)C(C)(C)C(=O)NCCOCCOCCNS(=O)(=O)c2ccc(O[C@H]3c4cc(Cl)cc(Cl)c4C[C@@H]3N(C)C)cc2)cc1 [Example 36]
3 | C (>70%) | < 100 nM | < 100 nM | CN(C)[C@H]1Cc2ccc(Cl)cc2[C@@H]1Oc1ccc(S(=O)(=O)NCCOCCOCCNC(=O)NCCCCNC(=O)NCCOCCOCCNS(=O)(=O)c2ccc(O[C@H]3c4cc(Cl)ccc4C[C@@H]3N(C)C)cc2)cc1 [Example 21]
4 | A (NHE3 <40%) | > 1000 nM | < 100 nM | CN(C)[C@H]1Cc2ccc(F)cc2[C@@H]1Oc1ccc(S(=O)(=O)NCCOCCOCCNC(=O)NCCCCNC(=O)NCCOCCOCCNS(=O)(=O)c2ccc(O[C@H]3c4cc(F)ccc4C[C@@H]3N(C)C)cc2)cc1 [Example 22]
5 | C (>70%) | 100 to 1000 nM | < 100 nM | O=C(NCCCCNC(=O)NCCOCCOCCNS(=O)(=O)c1ccc(O[C@H]2c3cc(F)ccc3C[C@@H]2N2CCCCC2)cc1)NCCOCCOCCNS(=O)(=O)c1ccc(O[C@H]2c3cc(F)ccc3C[C@@H]2N2CCCCC2)cc1 [Example 23]
6 | C (>70%) | < 100 nM | < 100 nM | O=C(NCCCCNC(=O)NCCOCCOCCNS(=O)(=O)c1ccc(O[C@H]2c3cc(Cl)cc(F)c3C[C@@H]2N2CCCCC2)cc1)NCCOCCOCCNS(=O)(=O)c1ccc(O[C@H]2c3cc(Cl)cc(F)c3C[C@@H]2N2CCCCC2)cc1 [Example 24]

Second part, the molecule before the results:

Row | SMILES | % inhibition (human Persistence assay) (human NHE3 [1]) | IC50 (human NHE3 [1]) | IC50 (human NHE3 [2])
7 | CN(C)[C@H]1Cc2ccccc2[C@@H]1Oc1ccc(S(=O)(=O)NCCOCCOCCNC(=O)NCCCCNC(=O)NCCOCCOCCNS(=O)(=O)c2ccc(O[C@H]3c4ccccc4C[C@@H]3N(C)C)cc2)cc1 [Example 20] | B (40-70%) | < 100 nM | < 100 nM
8 | O=C(NCCCCNC(=O)NCCOCCOCCNS(=O)(=O)c1ccc(O[C@H]2c3cc(Cl)cc(F)c3C[C@@H]2N2CC[C@@H](O)C2)cc1)NCCOCCOCCNS(=O)(=O)c1ccc(O[C@H]2c3cc(Cl)cc(F)c3C[C@@H]2N2CC[C@@H](O)C2)cc1 [Example 4, (S,S,R)—N,N′-(10,17-dioxo-3,6,21,24-tetraoxa-9,11,16,18-tetraazahexacosane-1,26-diyl)bis(4-((1S,2S)-6-chloro-4-fluoro-2-((R)-3-hydroxypyrrolidin-1-yl)-2,3-dihydro-1H-inden-1-yloxy)benzenesulfonamide)] | B (40-70%) | < 100 nM | < 100 nM
9 | CN(C)[C@H]1Cc2c(Cl)cc(Cl)cc2[C@@H]1Oc1ccc(S(=O)(=O)NCCOCCOCCNC(=O)COCC(=O)NCCOCCOCCNS(=O)(=O)c2ccc(O[C@H]3c4cc(Cl)cc(Cl)c4C[C@@H]3N(C)C)cc2)cc1 [Example 9, 2,2′-oxybis(N-(2-(2-(2-(4-((1S,2S)-4,6-dichloro-2-(dimethylamino)-2,3-dihydro-1H-inden-1-yloxy)phenylsulfonamido)ethoxy)ethoxy)ethyl)acetamide)] | C (>70%) | 100 to 1000 nM | < 100 nM
10 | CN(C)[C@H]1Cc2c(Cl)cc(Cl)cc2[C@@H]1Oc1ccc(S(=O)(=O)NCCOCCOCCNC(=O)[C@H](O)[C@@H](O)C(=O)NCCOCCOCCNS(=O)(=O)c2ccc(O[C@H]3c4cc(Cl)cc(Cl)c4C[C@@H]3N(C)C)cc2)cc1 [Example 5, (2R,3R)—N1,N4-bis(2-(2-(2-(4-((1S,2S)-4,6-dichloro-2-(dimethylamino)-2,3-dihydro-1H-inden-1-yloxy)phenylsulfonamido)ethoxy)ethoxy)ethyl)-2,3-dihydroxysuccinamide] | C (>70%) | 100 to 1000 nM | < 100 nM
11 | O=C(NCCCCNC(=O)NCCOCCOCCNS(=O)(=O)c1ccc(O[C@H]2c3cc(Cl)cc(Cl)c3C[C@@H]2N2CCCCC2)cc1)NCCOCCOCCNS(=O)(=O)c1ccc(O[C@H]2c3cc(Cl)cc(Cl)c3C[C@@H]2N2CCCCC2)cc1 [Example 15] | C (>70%) | > 1000 nM | > 10000 nM
12 | O=C(NCCCCNC(=O)NCCOCCOCCNS(=O)(=O)c1ccc(O[C@H]2c3ccccc3C[C@@H]2N2CCCCC2)cc1)NCCOCCOCCNS(=O)(=O)c1ccc(O[C@H]2c3ccccc3C[C@@H]2N2CCCCC2)cc1 [Example 14] | C (>70%) | > 1000 nM | < 100 nM
13 | O=C(NCCCCNC(=O)NCCOCCOCCNC(=O)Nc1cccc(O[C@H]2c3ccccc3C[C@@H]2N2CCCCC2)c1)NCCOCCOCCNC(=O)Nc1cccc(O[C@H]2c3ccccc3C[C@@H]2N2CCCCC2)c1 [Example 13, 1-{2-[2-(2-{[(3-{[(1S,2S)-2-(piperidin-1-yl)-2,3-dihydro-1H-inden-1-yl]oxy}phenyl)carbamoyl]amino}ethoxy)ethoxy]ethyl}-3-{4-[({2-[2-(2-{[(3-{[(1S,2S)-2-(piperidin-1-yl)-2,3-dihydro-1H-inden-1-yl]oxy}phenyl)carbamoyl]amino}ethoxy)ethoxy]ethyl}carbamoyl)amino]butyl}urea] | A (NHE3 <40%) | > 1000 nM | 100 to 10000 nM
14 | O=C(NCCCCNC(=O)NCCOCCOCCOCCNS(=O)(=O)c1ccc(O[C@H]2c3ccccc3C[C@@H]2N2CCCCC2)cc1)NCCOCCOCCOCCNS(=O)(=O)c1ccc(O[C@H]2c3ccccc3C[C@@H]2N2CCCCC2)cc1 [Example 16] | B (40-70%) | > 1000 nM | < 100 nM
